Results published in the supplement of paper PMC10290057.
Where a name gives a salt, the structure may show the parent alone.

How the values were obtained:
HCT116 [1] = assay: efficacy (fitted maximal change in viability relative to DMSO control); higher = less cytotoxic (negative = loss of viability); settings: 48 h
HCT116 [2] = assay: AC50 cell viability (CellTiter-Glo); higher = less potent; settings: 48 h
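For AC50 cell viability (CellTiter-Glo) in this document: HCT116 colorectal carcinoma cells screened at five concentrations per compound, luminescent viability scaled between DMSO wells and empty wells on each plate, curves fitted per compound.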
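For efficacy (fitted maximal change in viability relative to DMSO control) in this document: Luminescence-based viability readout, five doses per compound, normalized against on-plate DMSO and empty-well controls, followed by dose-response curve fitting for every drug.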

| SMILES | efficacy (HCT116 [1]) [%] | AC50 cell viability (HCT116 [2]) [µM] |
| --- | --- | --- |
| O=C(Nc1nc2cccc(-c3ccc(CN4CC[S+](=O)([O-])CC4)cc3)n2n1)C1CC1 [Filgotinib] | -70.1 | 7.42 |
| O[C@H]1CC[C@@H](Oc2cccc3cnc(Nc4ccc5nc[nH]c5c4)nc23)CC1 [NCB-1026] | -64.6 | 0.525 |
| O=C(N[C@H]1CCC[C@H](CO)C1)C1CCN(c2nc3cc(Cl)c(-c4ccc(Cl)cc4)cc3o2)CC1 | -83.2 | 23.5 |
| COC1=CC=C2C(=CC=NC2=C1)OC3=CC=C(NC(=O)\C4=C(C)\N(CC(C)(C)O)N(C4=O)C5=CC=CC=C5)C=C3F [AMG-1] | -67.9 | 11.8 |
| C/C1=C/C(=C(/CNC(=O)C2=CC(=CC3=C2C=N[N]3C4CCCC4)C5=CC=C(CN6CCOCC6)C=C5)C(=O)N1)C | -108 | 20.9 |
| Cc1cnc(-c2ccccc2C(C)C)nc1NCc1ccc(-n2ccnn2)cc1 [ML323] | -34.2 | 0.118 |
| C/C=C/C[C@@H](C)C(=O)[C@H]1C(=O)N[C@@H](C(C)C)C(=O)N(C)CC(=O)N(C)[C@@H](CC(C)C)C(=O)N[C@@H](C(C)C)C(=O)N(C)[C@@H](CC(C)C)C(=O)N[C@@H](C)C(=O)N[C@H](C)C(=O)N(C)[C@@H](CC(C)C)C(=O)N(C)[C@@H](CC(C)C)C(=O)N(C)[C@@H](C(C)C)C(=O)N1C [Valspodar] | -53.6 | 8.11 |
| CCCC1OC2C[C@H]3[C@@H]4CCC5=CC(=O)C=C[C@]5(C)[C@H]4C(O)C[C@]3(C)[C@]2(C(=O)CO)O1 (stereo partly specified) [Budesonide] | -52.3 | 18.6 |
| C[C@H]1O[C@H](C[C@H](O)[C@@H]1O)O[C@H]2[C@@H](O)C[C@@H](O[C@@H]2C)O[C@H]3[C@@H](O)C[C@@H](O[C@@H]3C)O[C@H]4CC[C@@]5(C)[C@H](CC[C@@H]6[C@@H]5C[C@@H](O)[C@]7(C)[C@H](CC[C@]67O)C/8=C/C(=O)OC8)C4 [Digoxin] | -80.9 | 0.0525 |
| COc1ncc(Nc2ncc([C@H](C)N3CCN([S+](C)(=O)[O-])CC3)cc2-c2nc(C)nc(N)n2)cc1F [AMG-511] | -80.5 | 5.9 |
| C#Cc1cccc(Nc2ncnc3cc(OCCOC)c(OCCO)cc23)c1 [OSI-420] | -76.6 | 6.61 |
| COc1cc2c(cc1OC(C)C)[C@H](c1ccc(Cl)cc1)N(c1ccc(N(C)C[C@H]3CC[C@H](N4CCN(C)C(=O)C4)CC3)cc1)C(=O)C2 [CGM-097] | -123 | 14.8 |
| COc1cccc(-c2cc(F)ccc2C2Cc3nc(N)nc(C)c3C(=O)N2)n1 (stereo unspecified) [HSP-990] | -64.3 | 0.0525 |
| CCN1C(=O)\C(=C/C2=C(C)N=C(N)N=C12)C3=CC=N[NH]3 [Voxtalisib] | -60.4 | 5.25 |
| CC(C)C(=O)OCC(=O)[C@@]12O[C@@H](O[C@@H]1C[C@H]3[C@@H]4CC\C5=C\C(=O)\C=C/[C@]5(C)[C@H]4[C@@H](O)C[C@]23C)C6CCCCC6 [Ciclesonide] | -78.4 | 20.9 |
| Cc1c(-c2ccc(O)cc2)n(Cc2ccc(OCCN3CCCCCC3)cc2)c2ccc(O)cc12 [Bazedoxifene] | -101 | 20.9 |
| COc1ccc(-c2ccc3c(N4CCOCC4)nc(N4C[C@@H](C)O[C@@H](C)C4)nc3n2)cc1CO | -45.6 | 1.66 |
| C=CC(=O)Nc1cccc(Oc2nc(Nc3ccc(N4CCN(C)CC4)cc3)ncc2Cl)c1 [WZ-3146] | -101 | 4.17 |
| COC1=C(F)C=C\2C(=C1)\N=C/3NNC(=C3\N=C2C4=CC=CC=C4Cl)/C [R-1530] | -73.2 | 14.8 |
| O=C(O)C1(Cc2cccc(Nc3nccs3)n2)CCC(Oc2cccc(Cl)c2F)CC1 (stereo unspecified) [MK-5108] | -34.3 | 0.833 |
| Fc1ccc(-c2nc(-c3ccccc3F)[nH]c2-c2ccncc2)cc1 [TA02] | -48.4 | 16.6 |
| O=C(NCc1ccncc1)C12C[C@H]3C[C@@H](C1)CC(c1ccc(Cl)cc1)(C3)C2 | -52.9 | 20.9 |
| Cc1ccc(C(=O)Nc2cccc(C(F)(F)F)c2)cc1-c1ccc2nc(NCCN3CCOCC3)ncc2c1 [AMG-47a] | -101 | 2.35 |
| C[C@@H](Oc1ccc2[nH]nc(/C=C/c3cnn(CCO)c3)c2c1)c1c(Cl)cncc1Cl | -79.4 | 0.661 |
| CN1CCCN(C(=O)c2cccc(-c3ccc(/C=C4/C(=O)Nc5ccc(Cl)cc54)o3)c2)CC1 [CX-6258] | -97.8 | 7.42 |
| C=CCNC1=C2CC(C)CC(OC)C(O)C(C)/C=C(\C)C(OC(N)=O)C(OC)/C=C/C=C(\C)C(=O)NC(=CC1=O)C2=O (stereo unspecified) [17-AAG (KOS953)] | -60.5 | 0.417 |
| CCCCCCCCc1ccc(CCC(N)(CO)CO)cc1 [Fingolimod hydrochloride] | -105 | 20.9 |
| COc1cc(N2CCN(C)CC2)ccc1Nc1nccc(-c2cn(C)c3cnccc23)n1 [AZ-191] | -88.4 | 18.6 |
